Measured values from US5270311A, “[1,2,4]-Triazolo[1,5-a]and pyrazolo[2,3-a][1,3,5]triazine derivatives” (Imperial Chemical Industries PLC, priority 1990, dated 1993).
Like-named read-outs stand apart in the source and are kept apart here.

Key:
A2 Adenosine receptor = molecular target: T1, A2 Adenosine receptor (Rattus norvegicus, UniProt P30543); test: A2 Adenosine receptor affinity test ([3H]-NECA displacement, PC12 membranes); assay type: binding
T1 construct: membrane preparations derived from the rat phaeochromocytoma cell line PC 12; endogenous in cells; host or cells: PC 12 (rat phaeochromocytoma; cell line available from the Beatson Institute, Glasgow)
T1 sequence (P30543 whole entry): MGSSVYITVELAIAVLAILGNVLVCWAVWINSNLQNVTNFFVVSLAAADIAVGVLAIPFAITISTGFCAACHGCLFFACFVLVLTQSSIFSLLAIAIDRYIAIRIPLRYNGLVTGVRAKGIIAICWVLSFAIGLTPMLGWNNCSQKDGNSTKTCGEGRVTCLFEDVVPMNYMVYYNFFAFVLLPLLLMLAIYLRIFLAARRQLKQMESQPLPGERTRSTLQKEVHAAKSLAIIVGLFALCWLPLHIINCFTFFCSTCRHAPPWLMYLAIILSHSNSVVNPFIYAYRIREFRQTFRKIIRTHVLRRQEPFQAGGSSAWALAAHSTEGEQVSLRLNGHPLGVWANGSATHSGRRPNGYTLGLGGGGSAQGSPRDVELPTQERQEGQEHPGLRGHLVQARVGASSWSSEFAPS
Description: The separated cells are then suspended in hypotonic solution (distilled water), allowed to stand on ice for 30 minutes and are then carefully homogenized using a standard high-speed homogeniser with periodic ice-cooling to obtain a fine suspension. […] A1280). […] After 20 minutes, the reaction is terminated by dilution with ice-cold buffer and transfer onto ice. The material obtained containing the cell membranes is recovered by centrifugation and washed by resuspension in buffer and recentrifugation. The pellet produced is then resuspended in ice-cold buffer using a hand-driven homogenizer. The resultant membrane suspension is frozen and stored under liquid nitrogen until required. […] After incubation, the samples are rapidly filtered over glass-fibre mats and the filter mats are washed to remove non-receptor-bound radioligand. Receptor-bound radioligand entrapped on the filter mats is then determined by liquid scintillation counting. Filtration and washing are carried out using a conventional vacuum filtration cell harvester. The specific binding (defined as the difference between the total binding and the non-specific binding) in the presence of the particular test compound is determined and compared with the control value.

[1] = molecular target: T2, adenosine receptor known as A2; test: Guinea-pig Aortic Constriction Test; settings: antagonism of adenosine relaxation of phenylephrine constricted guinea-pig aortic ring; read-out: pA2 (converted)
T2 construct: guinea pig thoracic aorta (from Dunkin Hartley strain, 250-400 g males); from tissue; host or cells: thoracic aortic rings, Dunkin Hartley guinea pig
T2 sequence (P29275 whole entry): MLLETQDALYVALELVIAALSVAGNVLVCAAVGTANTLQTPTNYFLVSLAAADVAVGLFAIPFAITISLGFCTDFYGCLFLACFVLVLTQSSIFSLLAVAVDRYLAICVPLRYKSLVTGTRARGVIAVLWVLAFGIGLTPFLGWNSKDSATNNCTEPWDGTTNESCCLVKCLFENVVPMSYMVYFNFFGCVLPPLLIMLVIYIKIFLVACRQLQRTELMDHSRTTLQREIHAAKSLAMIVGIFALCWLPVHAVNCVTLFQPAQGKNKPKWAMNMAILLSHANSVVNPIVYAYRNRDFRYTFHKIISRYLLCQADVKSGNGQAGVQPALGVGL
Description: (b) Guinea-pig Aortic Constriction Test
The aortic ring preparation is obtained as follows: Sections (3-5 mm) of guinea pig thoracic aorta (from Dunkin Hartley strain, 250-400 g males) are mounted in organ baths containing oxygenated Krebs solution (95% O2 : 5% CO2) at 37° C. [The nucleoside transport inhibitor, dipyridamole (10 μM) is present in the Krebs solution]. The isometric tension development is recorded and the tissue placed under a resting tension of 1 g and allowed to equilibrate for 1 hour. The aortic ring preparation is then sensitised to 10^-5 M phenylephrine. Erythro-9-(2-hydroxy-3-nonyl)adenine (EHNA) (10 μM) is added to the preparation and after 10 minutes the tissue is constricted to approximately 50% maximum by adding 3×10^-6 M phenylephrine. Adenosine is next added cumulatively (10^-7 M to 10^-3 M) and the evoked relaxation is measured. After washout for 20 minutes, a 10^5 M solution of the test compound in DMSO (maximum 1% by volume) diluted with Krebs solution is added and left to equilibrate for 30 minutes. Twenty minutes into the equilibration period further EHNA (10 μM) is added to the preparation and 10 minutes later phenylephrine (3×10^-6 M) is introduced to produce constrictive tone again. A repeat dose response curve to adenosine is then carried out followed by washout.
Significant antagonist activity in this assay is indicated by a DR of >2.

[2] = molecular target: T3, adenosine receptor known as A1 (Cavia porcellus, UniProt P47745); test: Guinea-pig Atrial Bradycardic Test; settings: antagonism of bradycardic effect of 2-chloroadenosine, beating guinea-pig atrial pair; read-out: pA2 (converted)
T3 construct: Atrial pairs are obtained from guinea-pigs (Dunkin Hartley strain, 250-400 g males); from tissue; host or cells: spontaneously beating atrial pairs, Dunkin Hartley guinea pig
T3 sequence (P47745 1-326): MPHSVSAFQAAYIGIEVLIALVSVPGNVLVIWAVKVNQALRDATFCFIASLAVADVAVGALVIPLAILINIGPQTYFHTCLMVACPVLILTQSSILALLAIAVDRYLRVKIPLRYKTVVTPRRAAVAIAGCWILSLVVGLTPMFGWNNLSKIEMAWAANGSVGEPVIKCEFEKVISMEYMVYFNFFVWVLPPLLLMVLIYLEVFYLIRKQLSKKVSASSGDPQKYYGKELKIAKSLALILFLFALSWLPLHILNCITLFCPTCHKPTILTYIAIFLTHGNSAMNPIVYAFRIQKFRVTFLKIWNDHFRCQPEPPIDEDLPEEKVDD
Description: (c) Guinea-pig Atrial Bradycardic Test
The atrial pair preparation may be obtained as follows: Atrial pairs are obtained from guinea-pigs (Dunkin Hartley strain, 250-400 g males) and mounted in organ baths containing oxygenated Krebs buffer solution (95% O2; 5% CO2) at 37° C. The spontaneously beating atria are then placed under a resting tension of 1 g and allowed to equilibrate for 50 minutes with continuous overflow. Overflow is then stopped and adenosine deaminase (1 Unit/ml) added to prevent the accumulation of endogenously produced adenosine. After equilibration for 15 minutes, a cumulative dose response curve to the adenosine mimetic, 2-chloroadenosine(10^-8 M to 10^-4 M) is administered to produce a maximal slowing of atrial rate. After washout during 30 minutes, adenosine deaminase is readministered to the bath which is allowed to equilibrate for 15 minutes. A 10^-5 M solution of the test compound in DMSO is then added to the bath which is left to incubate for 30 minutes. Any effect on the beating rate due to the test compound is noted before the dose response curve to 2-chloroadenosine is repeated. Compounds which are adenosine antagonists attenuate the 2-chloroadenosine response.
Test compounds are assessed by comparing dose response curves to 2-chloroadenosine alone with those obtained in the presence of the compound. […]

[3] = tested on: fall in diastolic blood pressure produced by 2-chloroadenosine; test: Anaesthetised cat blood pressure Test; assay type: in vivo; settings: i.v., Schild plot, 2-chloroadenosine 30 mm Hg fall in diastolic blood pressure
Description: (d) Anaesthetised cat blood pressure Test This test assesses the ability of a test compound to antagonise the fall in diastolic blood pressure produced by administration of the adenosine mimetic, 2-chloroadenosine. […] The blood gas status and pH are determined, and are maintained within physiological limits, before administration of 2-chloroadenosine. […] A solution of the test compound in a mixture of 50% v/v polyethylene glycol (PEG) 400 and 0.1M sodium hydroxide is then administered i.v. and after 15 minutes the DRC to 2-chloroadenosine is determined. This procedure is repeated twice with blood gases and pH being monitored and maintained within physiological limits between each DRC. […] From this plot a KB value is determined.

[4] = tested on: adenosine induced decrease in blood pressure; test: Conscious cat oral modification of Test (d); assay type: in vivo; settings: conscious cats, at several times the minimum effective dose
From the text: The above Test (d) may conveniently be modified to allow evaluation of orally administered test compounds by administering the test compound to conscious cats with indwelling arterial and venous catheters and measuring the effect in preventing an adenosine induced decrease in blood pressure.

[5] = tested on: actions of adenosine in lowering heart rate and increasing vasodilation (hind-limb perfusion pressure); test: Anaesthetised dog Test; assay type: in vivo; settings: Schild plot, antagonism of vasodilator response to adenosine
Description: (e) Anaesthetised dog Test
This test involves the assessment of the effects of a test compound on antagonising the actions of adenosine in lowering heart rate and increasing vasodilation (as measured by a fall in hind-limb perfusion pressure).
Beagles (12-18 kg) are anaesthetised with sodium pentobarbitone (50 mg/kg, iv). […] Both vagi, the right femoral and sciatic nerves are ligated and severed. […] The right leg is tied just below the ankle. Xamoterol (1 mg/kg) is then administered to the animal to stabilise heart rate at a high level and nitrobenzylthioinosine (NBTI, 0.5 mg/kg) to inhibit the uptake of adenosine. The animal is sensitised to adenosine during the equilibration time following NBTI by carrying out a dose response curve (DRC). During this time any blood gas or pH imbalance is corrected. A control DRC is performed followed-d by up to three DRC's after cumulative administration of the test compound (as described in (d) above). […] Similarly, blood gases and pH are maintained within physiological limits throughout the evaluation.
From this plot a KB value is determined for antagonism of heart rate response and vasodilator response to adenosine.

[6] = tested on: vasodilatation response during twitch contraction of skeletal muscle; test: Anaesthetised cat exercise hyperaemia test; assay type: in vivo; settings: Felis catus, iv, 20 min, hind limb contraction at 3 Hz for 20 minutes, read-out: dose producing significant inhibition of vasodilatation during exercise
Description: (f) Anaesthetised cat exercise hyperaemia test
This test involves assessment of the effect of a test compound to antagonise the vasodilatation response which occurs during twitch contraction of skeletal muscle. The vasodilation is mediated partly by the release of endogenous adenosine from the contracting skeletal muscle.
Cats (2.4-3.6 kg) are anaesthetised with sodium pentobarbitone (50 mg.kg^-1 ip). The following blood vessels are catheterized: left jugular vein (for infusion of anaesthetic, at approximately […] as a 6 mg.ml^-1 solution in isotonic saline), right external jugular vein (for administration of drugs and test compounds), right common carotid artery (for measurement of systemic arterial blood pressure and pulse rate) and right brachial artery (for withdrawal of blood).
Blood flow to the left hind limb is measured with an electromagnetic flow probe around the left external iliac artery. The whole of the left hind limb is made to contract at 3 Hz for 20 minutes duration by stimulating the sciatic and femoral nerves. Active tension produced by the extensor digitorum longus and peroneous longus muscles is measured isometrically with a force transducer. […] Test compounds are assessed for their ability to reduce the vasodilatation during skeletal muscle contraction. […]

SMILES | IC50 (A2 Adenosine receptor) [µM] | Kb [1] [µM] | Kb [2] [µM] | KB [3] [µg/kg] | sign of overt toxicity [4] | KB [5] [µg/kg] | minimal effective dose [6] [mg/kg] | IC50 (A2 Adenosine receptor; displacement of [3H]-NECA, rat PC 12 cell membranes, 30° C., 90 minutes) [µM]
Nc1nc(Oc2ccccc2)nc2nc(-c3ccco3)nn12 [Example 1, 7-amino-2-(2-furyl)-5-phenoxy-[1,2,4]triazolo[1,5-a][1,3,5]triazine] | ~0.01 | 0.0398 | 0.631 | 30 | without any sign of overt toxicity | 30 | 0.1 to 1 | –
Cn1c(=O)c2[nH]cnc2n(C)c1=O [1,3-dimethylxanthine, reference compound] | – | – | – | – | – | – | 10 | –
Nc1nc(Oc2ccccc2)nc2cc(-c3ccco3)nn12 [Example 119, 7-amino-2-(2-furyl)-5-phenoxy-pyrazolo[2,3-a][1,3,5]triazine] | – | 0.0501 | 1 | 700 | – | 1100 | – | ~0.00316
